pEC50: −log10 of the molar value.
Tests used:
hGPR40 [1] = molecular target: T1, hGPR40 (Homo sapiens, UniProt O14842); experiment: FDSS-based intracellular calcium assay (hGPR40 EC50); assay type: cell-based; set-up: 3xFLAG; expressed in transfected cells; conditions: cells expressing GPR40, intracellular Ca2+ response, FDSS reader
Experimental: FDSS-Based Intracellular Calcium Assay
Cell lines expressing GPR40 are generated using the pDEST-3×FLAG gene expression system and are cultured in culture medium comprising the following components: F12 (Gibco #11765), 10% lipid deprived fetal bovine serum, 250 μg/mL zeocin and 500 μg/mL G418. To conduct the fluorescent imaging plate reader (FLIPR)-based calcium flux assay to measure intracellular Ca^2+ response, cells expressing GPR40 are plated on 384 well plates (BD Biocoat #356697) at a density of 20,000 cells/20 μL medium per well in phenol red and serum-free DMEM (Gibco #21063-029) and incubated overnight. Using BD kit #s 80500-310 or -301, the cells are incubated with 20 μL per well of Hank's buffered salt solution with 1.7 mM probenecid and Fluo-3 at 37° C. for 30 min. Compounds are dissolved in DMSO and diluted to desired concentrations with assay buffer and added to the cells as 3× solution (20 μL per well). Run fluorescence/luminescence reader FDSS (Hamamatsu) to read intracellular Ca^2+ response.

hGPR40 [2] = molecular target: T1, hGPR40; experiment: GPR40 IP-One HTRF assay in HEK293/GPR40 inducible cell lines (hGPR40 IP1 EC50); assay type: cell-based; set-up: expressed in transfected cells; conditions: HEK293 cells with tetracycline-inducible human GPR40, IP-One HTRF
Experimental: GPR40 IP-One HTRF Assays in HEK293/GPR40 Inducible Cell Lines
Human, mouse and rat GPR40-mediated intracellular IP-One HTRF assays were established using human embryonic kidney HEK293 cells stably transfected with a tetracycline-inducible human, mouse or rat GPR40 receptor. Cells were routinely cultured in growth medium containing DMEM (Gibco Cat. #12430-047), 10% qualified FBS (Sigma, Cat. #F2442), 200 μg/mL hygromycin (Invitrogen, Cat. #16087-010) and 1.5 μg/mL blasticidin (Invitrogen, Cat. #R210-01). About 12-15 million cells were passed into a T175 tissue culture flask (BD Falcon 353112) with growth medium and incubated for 16-18 hours (overnight) at 37° C. with 5% CO2. The next day, assay medium was exchanged with growth medium containing 1000 ng/mL of tetracycline (Fluka Analytical, Cat. #87128) to induce GPR40 expression for 18-24 hours at 37° C. incubator with 5% CO2. After induction, the cells were washed with PBS (Gibco, Cat. #14190-036) and detached with Cell Stripper (Cellgro, Cat. #25-056-CL). 10-20 mL growth medium were added to the flask and cells were collected in 50 mL tubes (Falcon, Cat. #352098) and spun at 1000 RPM for 5 minutes. Culture medium was aspirated and the cells were resuspended in 10 mL of 1× IP-One Stimulation Buffer from the Cisbio IP-One kit (Cisbio, Cat. #62IPAPEJ). The cells were diluted to 1.4×10^6 cells/mL in Stimulation Buffer.
Test compounds were 3-fold, 11-point serially diluted in DMSO in a REMP assay plate (Matrix Cat. #4307) by Biocel (Agilent). The compounds were transferred into an Echo plate (Labcyte, Cat. #LP-0200) and 20 nL of diluted compounds were transferred to an assay plate (proxi-plate from Perkin Elmer, Cat. #6008289) by Echo acoustic nano dispenser (Labcyte, model ECHO550). 14 μL of the diluted cells were then added to the assay plate by Thermo (SN 836 330) Combi Drop and incubated at room temperature for 45 minutes. Then 3 μL of IP1 coupled to dye D2 from the Cisbio IP-One kit were added to the assay plate followed by 3 μL of Lumi4-Tb cryptate K from the kit. The plate was further incubated at room for 1 hour before reading on the Envision (Perkin Elmer Mode12101) with an HTRF protocol. Activation data for the test compound over a range of concentrations was plotted as percentage activation of the test compound (100%=maximum response). After correcting for background [(sample read-mean of low control)/(mean of high control-mean of low control)](low control is DMSO without any compound), EC50 values were determined. […] The maximal Y value observed (% Ymax) was calculated relative to a BMS standard reference compound at a final concentration of 0.625 μM.

T1 sequence (O14842 whole entry): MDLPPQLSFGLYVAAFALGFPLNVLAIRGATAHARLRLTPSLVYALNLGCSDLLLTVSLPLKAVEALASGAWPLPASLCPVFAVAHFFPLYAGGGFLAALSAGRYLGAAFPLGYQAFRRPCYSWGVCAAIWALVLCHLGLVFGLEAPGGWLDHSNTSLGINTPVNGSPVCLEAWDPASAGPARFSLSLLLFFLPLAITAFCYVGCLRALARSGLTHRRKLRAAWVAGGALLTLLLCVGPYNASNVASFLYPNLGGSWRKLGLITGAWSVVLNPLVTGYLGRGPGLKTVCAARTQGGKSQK

Row | SMILES | pEC50 (hGPR40 [1]) | pEC50 (hGPR40 [2])
1 | COc1cc(N2CC[C@@H](Oc3cnc(N4C[C@H](OC)C[C@H]4CC(=O)O)cn3)[C@H](C)C2)c(Cl)cn1 [Example 7, 2-((2S,4R)-1-(5-((3R,4R)-1-(5-Chloro-2-methoxypyridin-4-yl)-3-methylpiperidin-4-yloxy)pyrazin-2-yl)-4-methoxypyrrolidin-2-yl)acetic acid] | 5.49 | 
2 | COc1cc(N2CC[C@@H](Oc3cnc(N4C[C@H](OC)C[C@@H]4CC(=O)O)cn3)[C@H](C)C2)c(Cl)cn1 [Example 6, 2-((2R,4R)-1-(5-((3R,4R)-1-(5-Chloro-2-methoxypyridin-4-yl)-3-methylpiperidin-4-yloxy)pyrazin-2-yl)-4-methoxypyrrolidin-2-yl)acetic acid] | 6.82 | 7.36
3 | COCCCO[C@H]1CN(c2cnc(O[C@@H]3CCN(c4cc(OC)ncc4Cl)C[C@H]3C)cn2)[C@@H](CC(=O)O)[C@@H]1C [Example 2, 2-((2S,3S,4R)-1-(5-((3R,4R)-1-(5-Chloro-2-methoxypyridin-4-yl)-3-methylpiperidin-4-yloxy)pyrazin-2-yl)-4-(3-methoxypropoxy)-3-methylpyrrolidin-2-yl)acetic acid] | 7.37 | 8.40
4 | COc1cc(N2CC[C@@H](Oc3cnc(N4C[C@H](C(F)(F)F)C[C@@H]4CC(=O)O)cn3)[C@H](C)C2)c(Cl)cn1 [Example 9, 2-((2R,4R)-1-(5-((3R,4R)-1-(5-Chloro-2-methoxypyridin-4-yl)-3-methylpiperidin-4-yloxy)pyrazin-2-yl)-4-(trifluoromethyl)pyrrolidin-2-yl)acetic acid] | 7.08 | 
5 | COc1cc(N2CC[C@@H](Oc3cnc(N4C[C@H](C(F)(F)F)C[C@H]4CC(=O)O)cn3)[C@H](C)C2)c(Cl)cn1 [Example 8, 2-((2S,4R)-1-(5-((3R,4R)-1-(5-Chloro-2-methoxypyridin-4-yl)-3-methylpiperidin-4-yloxy)pyrazin-2-yl)-4-(trifluoromethyl)pyrrolidin-2-yl)acetic acid] | 6.02 | 
6 | CCOc1ccc(F)c(N2CC[C@@H](Oc3cnc(N4CC(OCCCOC)C(C)C4CC(=O)O)cn3)[C@H](C)C2)c1 (stereo partly drawn) [Example 5, 2-(1-(5-(((3R,4R)-1-(5-Ethoxy-2-fluorophenyl)-3-methylpiperidin-4-yl)oxy)pyrazin-2-yl)-4-(3-methoxypropoxy)-3-methylpyrrolidin-2-yl)acetic acid] | 6.08 | 
7 | CCOc1ccc(F)c(N2CC[C@@H](Oc3cnc(N4C[C@H](OC)[C@@H](C)[C@@H]4CC(=O)O)cn3)[C@H](C)C2)c1 [Example 3, 2-((2S,3S,4R)-1-(5-((3R,4R)-1-(5-Ethoxy-2-fluorophenyl)-3-methylpiperidin-4-yloxy)pyrazin-2-yl)-4-methoxy-3-methylpyrrolidin-2-yl)acetic acid] | 7.38 | 7.68
8 | CCOc1ccc(F)c(N2CC[C@@H](Oc3cnc(N4C[C@H](OCCCOC)[C@@H](C)[C@@H]4CC(=O)O)cn3)[C@H](C)C2)c1 [Example 4, 2-((2S,3S,4R)-1-(5-((3R,4R)-1-(5-Ethoxy-2-fluorophenyl)-3-methylpiperidin-4-yloxy)pyrazin-2-yl)-4-(3-methoxypropoxy)-3-methylpyrrolidin-2-yl)acetic acid] | 7.35 | 
9 | COc1cc(N2CC[C@@H](Oc3cnc(N4C[C@H](OC)[C@@H](C)[C@@H]4CC(=O)O)cn3)[C@H](C)C2)c(Cl)cn1 [Example 1, 2-((2S,3S,4R)-1-(5-((3R,4R)-1-(5-Chloro-2-methoxypyridin-4-yl)-3-methylpiperidin-4-yloxy)pyrazin-2-yl)-4-methoxy-3-methylpyrrolidin-2-yl)acetic acid] | 7.14 | 7.85
